Reference: a compilation of properties of binary mixtures (doi:10.1039/c7cp05886a)

Assay: xn = mol fraction of the nth substance listed
Settings: 298.15 K, 100 kPa

CCCCCCCCn1cc[n+](C)c1.O=S(=O)([N-]S(=O)(=O)C(F)(F)F)C(F)(F)F + CCCCOC(C)=O
Settings	electrical conductivity [S/m]	viscosity [mPa·s]
x2 = 0.2622	–	44.2
x2 = 0.481	0.307	–
x2 = 0.5001	–	17.1
x2 = 0.6824	0.407	–
x2 = 0.7372	0.414	–
x2 = 0.7503	–	4.99
x2 = 0.7923	0.406	–
x2 = 0.797	–	3.47
x2 = 0.8503	–	2.53
x2 = 0.8928	0.279	–
x2 = 0.8976	–	1.73
x2 = 0.9305	–	1.308
x2 = 0.9456	0.19	–

CCCCCCCC[N+]1(C)CCCC1.O=S(=O)([N-]S(=O)(=O)C(F)(F)F)C(F)(F)F + CCCCOC(C)=O
Settings	electrical conductivity [S/m]	viscosity [mPa·s]
x2 = 0	0.082	138.2
x2 = 0.481	0.256	–
x2 = 0.4969	–	17.37
x2 = 0.6954	–	7.1
x2 = 0.7372	0.361	–
x2 = 0.7499	–	5.07
x2 = 0.8031	–	3.42
x2 = 0.8484	–	2.5
x2 = 0.8928	0.242	–
x2 = 0.9016	–	1.732
x2 = 0.9431	–	1.202
x2 = 0.9456	0.131	–

CCCCOC(C)=O + CCCC[n+]1ccn(C)c1.O=S(=O)([N-]S(=O)(=O)C(F)(F)F)C(F)(F)F
Settings	electrical conductivity [S/m]	viscosity [mPa·s]
x1 = 0.2414	0.529	26
x1 = 0.481	0.67	11.88
x1 = 0.6824	0.725	4.9
x1 = 0.7372	0.704	3.42
x1 = 0.7923	0.654	2.65
x1 = 0.8427	0.535	2.043

CCCCCCCC[n+]1ccccc1.O=S(=O)([N-]S(=O)(=O)C(F)(F)F)C(F)(F)F + CCCCOC(C)=O
Settings	electrical conductivity [S/m]	viscosity [mPa·s]
x2 = 0	0.097	104.1
x2 = 0.2414	0.166	–
x2 = 0.2556	–	49.6
x2 = 0.481	0.271	–
x2 = 0.501	–	18.43
x2 = 0.6984	–	6.82
x2 = 0.7372	0.384	–
x2 = 0.7522	–	4.87
x2 = 0.7923	0.377	–
x2 = 0.7996	–	3.57
x2 = 0.8427	0.333	–
x2 = 0.8487	–	2.47
x2 = 0.8928	0.258	–
x2 = 0.8996	–	1.732
x2 = 0.9456	0.124	–
x2 = 0.9493	–	1.227
